From US7601739B2, “Compounds having antiestrogenic and tissue selective estrogenic properties, and compounds with anti-androgenic properties for treatment of prostate cancer and androgen receptor dependent diseases” (Virgina Commonwealth University, priority 2006, dated 2009) come the findings set out here.

The test system of assay [1] is MDA-MB-231 cells. Nature of the assay: hER negative breast cancer cell proliferation assay. The class given is cell-based, human. The following applies: hER negative cell line. On the procedure:
MCF-7 or MDA-MB-231 cells were inoculated into 12-well culture plates at 10000 cells in 2 ml maintained medium per well. Cells were allowed to attach to the bottom for 24 hrs incubation, then the seeding medium was removed and replaced by the experimental medium (phenol red-free DMEM supplemented with 5% charcoal-stripped fetal bovine serum and Penicillin (100 unit/ml)/Streptomycin ([…])). After 24 hr incubation, the test molecules dissolved in DMSO were added in the wells. […] The culture was continued for 3 days and the medium and tested compounds were replaced every two days. The final cell numbers were estimated with CellTiter proliferation assay kit (Promega, Madison, Wis.) by measuring the absorbance at 570 nm, which is directly proportional to the number of living cells in the culture.
In this assay, MDA-MB-231 breast cancer cell line, a hER negative cell line, was used. DMSO was used as reference.

The target of assay [2] is T1, hERα D351Y (Homo sapiens, UniProt P03372, D351Y).
T1 construct: mammalian expression plasmid containing full length human ER cDNA, pCMV-hER; expressed in transfected cells
T1 sequence (P03372 1-595 D351Y): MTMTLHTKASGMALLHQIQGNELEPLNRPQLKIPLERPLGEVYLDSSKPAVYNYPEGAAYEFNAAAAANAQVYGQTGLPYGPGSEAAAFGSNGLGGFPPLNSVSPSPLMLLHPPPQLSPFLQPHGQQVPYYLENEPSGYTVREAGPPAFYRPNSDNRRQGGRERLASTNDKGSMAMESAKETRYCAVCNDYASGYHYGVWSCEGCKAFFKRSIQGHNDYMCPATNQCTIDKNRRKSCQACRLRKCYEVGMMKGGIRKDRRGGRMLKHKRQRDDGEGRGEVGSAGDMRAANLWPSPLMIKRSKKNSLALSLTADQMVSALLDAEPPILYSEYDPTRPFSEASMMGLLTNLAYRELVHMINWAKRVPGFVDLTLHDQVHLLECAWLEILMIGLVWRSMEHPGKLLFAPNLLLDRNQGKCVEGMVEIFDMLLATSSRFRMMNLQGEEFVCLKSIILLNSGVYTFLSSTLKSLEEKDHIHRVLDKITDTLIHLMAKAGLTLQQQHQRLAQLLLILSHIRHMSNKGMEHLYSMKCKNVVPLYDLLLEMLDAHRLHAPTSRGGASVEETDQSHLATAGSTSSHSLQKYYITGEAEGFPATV
The assay can be described thus: Transient transfection reporter assay with hERα D351Y mutant. The class given is cell-based. On the procedure: The tyrosine mutation (pCMV-D351Y) at amino acid 351 was introduced by using the Quick Change Site-Directed Mutagenesis Kit (Stratagene, La Jolla, Calif.) and pCMV-ER was used as the template. The primers constructed were as follows: 5′ primer (5′-[…]-3′) (SEQ ID NO. 9), the underlined nucleotide was changed to make the D351Y mutation) and a 3′ primer (5′-[…]-3′) (SEQ ID NO. 10).
For the transient transfection reporter assays, the cells were plated in triplicate in 12-well plates at a density of 300000 cells/well in the phenol red-free DMEM (GIBCO/BRL, Grand Island, N.Y.) supplemented with 10% charcoal-stripped fetal bovine serum (Hyclone, Logan, Utah), Penicillin (100 unit/ml)/Streptomycin ([…]), 2 mML-glutamine and 1 mM sodium Pyruvate. 24 hrs later, the cells were transfected with three plasmids by using Superfect transfection kit (Qiagen, Valencia, Calif.). For the detection of hER activity, cells were transfected with 2 g hER expression plasmid (pCMV-ER ), 6 g luciferase reporter plasmid containing estrogen receptor response element (PGL-TATA-Luc), and 600 ng normalization control, β-galactosidase reporter plasmid (pCMV ). For the detection of hER activity, cells were transfected with 3 ug hER expression plasmid (pcDNA3.1-hER), 6 g luciferase reporter plasmid containing estrogen receptor response element (PGL-TATA-Luc), and 600 ng pCMV. For determining the influence of ER's major coactivator in breast, AIB 1, 2 g pcDNA3.1-AIB1 was added into the transfection plasmid solution mentioned previously.
The transfected cells were rinsed with PBS and treated with various concentrations of test molecules and one […] (vehicle, DMSO or methanol) in phenol red-free culture medium. After incubation for further 24 hrs, the cells were washed with PBS and lysed with lysis buffer (Pierce, Rockford, Ill.). The lysate was used to determine the luciferase activity for ER's activity and the β-galactosidase activity for the normalization of transfection efficiency.
For the luciferase activity assay, 20 μl of lysate and 100 μl luciferase assay buffer (Promega, Madison, Wis.) were added into a well of 96-well plate. The luminescence was detected by using luminescence microplate reader, LumiCount (Packard, Boston, Mass.). For the β-galactosidase activity assay, […] β-galactosidase assay buffer (Clontech, Palo Alto, Calif.) were added into a well of 96-well plate. The β-galactosidase activity was measured as luminescence strength by using luminescence microplate reader, LumiCount (Packard, Boston, Mass.). The normalized reporter activity was calculated by the luciferase activity divided by that of β-galactosidase.
Amino acid 351 (D351) of hERα plays an essential role in regulating estrogenic or antiestrogenic compound's binding to hERα and the recruitment of corepressors. […] Based on this observation the hERα D351Y mutant is generated by PCR-based site directed mutagenesis method for use in the transient transfection reporter assay. The main goal of this testing is to elucidate the existence of the pure antiestrogenic property of the compounds of the invention and to determine whether the compounds estrogenic activity will increase due to the presence of hERα D351Y or not.
In this assay, DMSO was used as reference.
Background: Reporter assays use an easily measured gene product as a stand-in for the process of interest.

As to `CCCCNC(=O)CCCCCCCCCCOCC1Cc2ccccc2CN1C(=O)c1cccc(O)c1` (centres unmarked) [Compound 6], in assay [1], the “proliferation effects against MDA-MB-231 cells (FIG. 6, words)” value is “do not inhibit or stimulate the growth”. In assay [2], the “estrogenic activity against hERα D351Y compared with hERα wild type (FIG. 5)” value was “do not increase” and the “estrogenic effects against mutant hERα D351Y compared with DMSO (FIG. 5)” value (from here on “estrogenic effects … compared with DMSO (FIG. 5)”) is on record as “even lower than that of DMSO”.

`CCCCNC(=O)CCCCCCCCCCOCC1Cc2ccccc2CN1C(=O)c1ccc(O)cc1` (centres unmarked) [Compound 7]: in assay [2], the “estrogenic activity against hERα D351Y compared with hERα wild type (FIG. 5)” value is “do not increase” and the “estrogenic effects … compared with DMSO (FIG. 5)” value is given as “even lower than that of DMSO”.

Turning to `CCCCNC(=O)CCCCCCCCCCOCC1Cc2ccccc2CN1C(=O)c1cccc(OC)c1` (centres unmarked) [Compound 4], the “proliferation effects against MDA-MB-231 cells (FIG. 6, words)” value in assay [1] is recorded as “do not inhibit or stimulate the growth”. For the same compound, in assay [2], the “estrogenic activity against hERα D351Y compared with hERα wild type (FIG. 5)” value is reported as “do not increase” and the “estrogenic effects … compared with DMSO (FIG. 5)” value is recorded as “even lower than that of DMSO”.
